# Measured values from BindingDB's records for patent US20250313563 (The Broad Institute, 2025).
# Several values for one entry are separate records, joined by “and”; a condition that tells them apart may be missing. Identical values can stand only once.
# Target: Glycogen synthase kinase-3 beta (Homo sapiens, UniProt P49841)
# Experiment: TR-FRET Assay
# Procedure: The assay was performed in a white, 384 well, low volume, flat bottom plate (Grenier). […] The kinase activity was quenched with 2 μL of 250 mM EDTA. A 10 μL volume of 40 nM Strepavidin-d2, 2 nM Tb2+-pSer641 antibody in TR-FRET Detection Buffer (Invitrogen) was then added.
# Sequence of Glycogen synthase kinase-3 beta (P49841 whole entry): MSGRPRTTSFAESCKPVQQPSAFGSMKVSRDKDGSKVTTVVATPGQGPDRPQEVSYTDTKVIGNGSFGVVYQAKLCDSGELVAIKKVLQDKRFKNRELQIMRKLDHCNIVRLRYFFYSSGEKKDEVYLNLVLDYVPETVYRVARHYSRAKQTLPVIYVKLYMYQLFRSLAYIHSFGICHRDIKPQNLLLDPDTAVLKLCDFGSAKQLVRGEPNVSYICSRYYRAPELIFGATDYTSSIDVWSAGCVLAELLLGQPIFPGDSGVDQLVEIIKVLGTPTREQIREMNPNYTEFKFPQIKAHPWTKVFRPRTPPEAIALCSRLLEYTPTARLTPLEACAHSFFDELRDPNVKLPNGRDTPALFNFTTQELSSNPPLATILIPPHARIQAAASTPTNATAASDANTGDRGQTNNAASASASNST
row,Compound,IC50
1,"CC[C@@]1(c2cccc(C(F)F)c2)C2=C(CC(C)(C)NC2=O)NC2N=NC(C(F)(F)F)=C21 (some centres undefined) [US20250313563, Compound 951948]",100 to 1000 nM
2,"CC1(C)CC(=O)C2=C(C1)NC1=C(CN=N1)[C@]21COC2(CN(C(=O)C3CCOCC3)C2)C1 [US20250313563, Compound 945407]",100 to 1000 nM
3,"CC[C@]1(c2cccc(C(F)(F)F)c2)C2=CN=NC2NC2=C1C(=O)N(c1cnn(C)c1)CC2 (some centres undefined) [US20250313563, Compound 949270]",100 to 1000 nM
4,"CC[C@@]1(c2cccc(C(F)(F)F)c2)C2=CN=NC2NC2=C1C(=O)NC[C@@H]2C (some centres undefined) [US20250313563, Compound 945382]",100 to 1000 nM
5,"CC1(C)CC(=O)C2=C(C1)NC1=C(CN=N1)[C@@]21COC2(CN(C(=O)C3CCC4(CC3)COC4)C2)C1 [US20250313563, Compound 944075]",100 to 1000 nM
6,"CC[C@@]1(c2cccc(C)c2)C2=C(CC(C)(C)CC2=O)NC2N=NC(C(F)(F)F)=C21 (some centres undefined) [US20250313563, Compound 883873]",100 to 1000 nM
7,"Cc1ccc(C(=O)N2CC3(C2)C[C@]2(CO3)C3=C(N=NC3)NC3=C2C(=O)CC(C)(C)C3)cc1C [US20250313563, Compound 948038]",< 100 nM and 100 to 1000 nM
8,"CC[C@]1(c2cccc(-c3cnn(C)c3C)c2)C2=C(CC(C)(C)CC2=O)NC2N=NC(C)=C21 (some centres undefined) [US20250313563, Compound 913045]",< 100 nM and 100 to 1000 nM
9,"CC[C@]1(c2cccc(-c3ccnn3C)c2)C2=CN=NC2NC2=C1C(=O)NC1(CCOCC1)C2 (some centres undefined) [US20250313563, Compound 948516]",100 to 1000 nM
10,"CC[C@@]1(c2cccc(S(=O)(=O)C(C)C)c2)C2=C(CC(C)(C)NC2=O)NC2N=NC(C)=C21 (some centres undefined) [US20250313563, Compound 947876]",100 to 1000 nM
11,"CC[C@]1(c2cccc(-c3cnn(C)c3)c2)C2=CN=NC2NC2=C1C(=O)C[C@H](C)C2 (some centres undefined) [US20250313563, Compound 823720]",100 to 1000 nM
12,"CC[C@]1(c2cccc(-c3cn(C)nc3C(F)(F)F)c2)C2=CN=NC2NC2=C1C(=O)NC(C)(C)C2 (some centres undefined) [US20250313563, Compound 949266]",100 to 1000 nM
13,"CC[C@@]1(c2cccc(OC)c2)C2=CN=NC2NC2=C1C(=O)C[C@H](C)C2 (some centres undefined) [US20250313563, Compound 811559]",100 to 1000 nM
14,"CC[C@@]1(c2cccc(-c3c(Cl)cncc3Cl)c2)C2=CN=NC2NC2=C1C(=O)NC(C)(C)C2 (some centres undefined) [US20250313563, Compound 948515]",100 to 1000 nM
15,"CC1(C)CC(=O)C2=C(C1)NC1N=NC(C3CC(F)(F)C3)=C1[C@]21COc2ccccc21 (some centres undefined) [US20250313563, Compound 127429]",1000 to 5000 nM
16,"CC[C@]1(c2cccc(-c3c(C)cnc4ccccc34)c2)C2=C(CC(C)(C)NC2=O)NC2=NN=CC21 (some centres undefined) [US20250313563, Compound 949398]",100 to 1000 nM
17,"CC[C@]1(c2cccc(C(F)(F)F)c2)C2=C(CC(C)(C)CC2=O)NC2N=NC(Br)=C21 (some centres undefined) [US20250313563, Compound 810466]",100 to 1000 nM
18,"CN1C[C@@]2(C3=C(CC(C)(C)CC3=O)NC3N=NC(CC(C)(C)C)=C32)c2ccccc21 (some centres undefined) [US20250313563, Compound 125979]",1000 to 5000 nM
19,"CC[C@]1(c2cccc(S(=O)(=O)C(C)C)c2)C2=C(CC(C)(C)NC2=O)NC2=C1C(C)N=N2 (some centres undefined) [US20250313563, Compound 947870]",100 to 1000 nM
20,"CC(C)(C)CC1N=NC2=C1C1(CN(c3ccccc3)C1)C1=C(CC(C)(C)CC1=O)N2 (centres undefined) [US20250313563, Compound 93429]",1000 to 5000 nM and 134 nM

row,Compound,IC50
1,"CC1(C)CC(=O)C2=C(C1)NC1=C(CN=N1)[C@]21CCN(S(=O)(=O)c2ccccc2F)C1 [US20250313563, Compound 943487]",100 to 1000 nM
2,"CC[C@@]1(c2cccc(-c3c(F)cncc3OC)c2)C2=C(N=NC2)NC2=C1C(=O)N(Cc1ccccc1)C2 [US20250313563, Compound 948550]",100 to 1000 nM
3,"CC[C@]1(c2cccc(Br)c2)C2=CN=NC2NC2=C1C(=O)[C@H](F)C(C)(C)C2 (some centres undefined) [US20250313563, Compound 835314]",100 to 1000 nM
4,"CC(C)(C)CC1N=NC2=C1[C@@]1(CCc3cccc(F)c31)C1=C(CC(C)(C)CC1=O)N2 (some centres undefined) [US20250313563, Compound 801351]",100 to 1000 nM
5,"CC[C@@]1(c2cccc(Oc3ncccn3)c2)C2=C(CC(C)(C)CC2=O)NC2N=NC(C(F)(F)F)=C21 (some centres undefined) [US20250313563, Compound 951604]",100 to 1000 nM
6,"CC[C@@]1(c2cccc(C(F)(F)F)c2)C2=CN=NC2NC2=C1C(=O)N(CC(F)(F)F)CC2 (some centres undefined) [US20250313563, Compound 912206]",100 to 1000 nM
7,"CC(C)(C)CC1N=NC2=C1[C@@](C)(c1ccccc1)C1=C(CC(C)(C)NC1=O)N2 (some centres undefined) [US20250313563, Compound 114532]",> 5000 nM
8,"CC1(C)CC(=O)C2=C(C1)NC1=C(CN=N1)[C@]21CCN(S(=O)(=O)c2ccccc2)C1 [US20250313563, Compound 951787]",100 to 1000 nM
9,"CC[C@@]1(c2cccc(-c3ccnn3C)c2)C2=CN=NC2NC2=C1C(=O)N[C@](C)(COC)C2 (some centres undefined) [US20250313563, Compound 947905]",100 to 1000 nM
10,"CC[C@]1(c2cccc(C(F)(F)F)c2)C2=C(N=NC2)NC2=C1C(=O)N[C@@H]2C [US20250313563, Compound 945378]",100 to 1000 nM
11,"CC[C@]1(c2cccc(Cl)c2)C2=C(CC(C)(C)CC2=O)NC2N=NC(Br)=C21 (some centres undefined) [US20250313563, Compound 801314]",< 100 nM and 100 to 1000 nM
12,"CCC1(c2cccc(-c3cc(C)nnc3C)c2)C2=C(CC(C)(C)NC2=O)NC2N=NC(C)=C21 (centres undefined) [US20250313563, Compound 948766]",100 to 1000 nM
13,"CC[C@@]1(c2cccc(-c3c(F)cncc3OC)c2)C2=CN=NC2NC2=C1C(=O)CC(C)(C)[C@@H]2F (some centres undefined) [US20250313563, Compound 948548]",100 to 1000 nM
14,"CC[C@]1(c2cccc(C(F)(F)F)c2)C2=CN=NC2NC2=C1C(=O)N(c1ccccc1C)CC2 (some centres undefined) [US20250313563, Compound 949128]",100 to 1000 nM
15,"CC[C@]1(c2cccc(-c3ccnc4c3CCCC4)c2)C2=C(N=NC2)NC2=C1C(=O)N(Cc1ccccc1)C2 [US20250313563, Compound 948551]",100 to 1000 nM
16,"CC[C@]1(c2cccc(-c3c(F)cncc3OC)c2)C2=CN=NC2NC2=C1C(=O)CC(C)(C)[C@@H]2F (some centres undefined) [US20250313563, Compound 948546]",100 to 1000 nM
17,"CC[C@@]1(c2cccc(C(F)(F)F)c2)C2=C(N=NC2)NC2=C1C(=O)N(C)[C@@H]2C [US20250313563, Compound 913475]",> 5000 nM
18,"CC[C@@]1(c2cccc(-c3cnn(CC#N)c3)c2)C2=CN=NC2NC2=C1C(=O)NC(C)(C)C2 (some centres undefined) [US20250313563, Compound 952210]",100 to 1000 nM
19,"CC[C@@]1(c2cccc(C(F)(F)F)c2)C2=C(N=NC2)NC2=C1C(=O)N(C)[C@H]2C [US20250313563, Compound 913495]",> 5000 nM

# Next, values leading:
row,IC50,Compound
1,1000 to 5000 nM,"CC[C@@]1(c2cccc(-c3cc(C)ncc3F)c2)C2=CN=NC2NC2=C1C(=O)CC(C)(C)C2 (some centres undefined) [US20250313563, Compound 927346]"
2,100 to 1000 nM,"CC[C@]1(c2cccc(-c3cnn4c3CCCC4)c2)C2=C(CC(C)(C)CC2=O)NC2N=NC(C)=C21 (some centres undefined) [US20250313563, Compound 913036]"
3,100 to 1000 nM,"CC[C@]1(c2cccc(-c3ccnn3C)c2)C2=CN=NC2NC2=C1C(=O)CC(C)(C)C2 (some centres undefined) [US20250313563, Compound 911992]"
4,100 to 1000 nM,"CC[C@]1(c2cccc(-c3cc(C)ncc3F)c2)C2=CN=NC2NC2=C1C(=O)NC(C)(C)C2 (some centres undefined) [US20250313563, Compound 947804]"
5,100 to 1000 nM,"CCN(c1cccc([C@@]2(CC)C3=CN=NC3NC3=C2C(=O)CC(C)(C)C3)c1)c1ncccn1 (some centres undefined) [US20250313563, Compound 947333]"
6,100 to 1000 nM,"CC[C@@]1(c2cccc(-c3ccnc4c3CCCC4)c2)C2=CN=NC2NC2=C1C(=O)CC(C)(C)C2 (some centres undefined) [US20250313563, Compound 944033]"
7,100 to 1000 nM,"CC[C@]1(c2cccc(N(C)c3nccc(C)n3)c2)C2=CN=NC2NC2=C1C(=O)CC(C)(C)C2 (some centres undefined) [US20250313563, Compound 945328]"
8,1000 to 5000 nM,"CC[C@@]1(c2cccc(-c3ccnc(C)c3)c2)C2=CN=NC2NC2=C1C(=O)C[C@]1(CCOC1)C2 (some centres undefined) [US20250313563, Compound 947407]"
9,100 to 1000 nM,"CCCn1nccc1-c1cccc([C@]2(CC)C3=CN=NC3NC3=C2C(=O)CC(C)(C)C3)c1 (some centres undefined) [US20250313563, Compound 946093]"
10,100 to 1000 nM,"CC[C@]1(c2cccc(-c3ccncc3F)c2)C2=C(CC(C)(C)CC2=O)NC2N=NC(C)=C21 (some centres undefined) [US20250313563, Compound 913052]"
11,100 to 1000 nM,"CC[C@]1(c2cccc(-c3ccncc3F)c2)C2=CN=NC2NC2=C1C(=O)CC(C)(C)C2 (some centres undefined) [US20250313563, Compound 943518]"
12,100 to 1000 nM,"CC[C@@]1(c2cccc(-c3cc(C)nn3C)c2)C2=CN=NC2NC2=C1C(=O)CC(C)(C)C2 (some centres undefined) [US20250313563, Compound 946097]"
13,100 to 1000 nM,"CC[C@@]1(c2cccc(-c3ccncc3Cl)c2)C2=CN=NC2NC2=C1C(=O)NC(C)(C)C2 (some centres undefined) [US20250313563, Compound 948142]"
14,100 to 1000 nM,"CC[C@]1(c2cccc(N(C)c3ccnc(OC)c3)c2)C2=CN=NC2NC2=C1C(=O)CC(C)(C)C2 (some centres undefined) [US20250313563, Compound 932642]"
15,100 to 1000 nM,"CC[C@]1(c2cccc(-c3ccncc3OC)c2)C2=CN=NC2NC2=C1C(=O)CC(C)(C)C2 (some centres undefined) [US20250313563, Compound 945481]"
16,100 to 1000 nM,"CC[C@]1(c2cccc(-c3ccncc3C)c2)C2=CN=NC2NC2=C1C(=O)CC(C)(C)C2 (some centres undefined) [US20250313563, Compound 943990]"
17,100 to 1000 nM,"CC[C@]1(c2cccc(-c3cc(C)ncc3C)c2)C2=C(CC(C)(C)CC2=O)NC2N=NC(C(F)(F)F)=C21 (some centres undefined) [US20250313563, Compound 947363]"
18,100 to 1000 nM,"CC[C@@]1(c2cccc(S(=O)(=O)C(C)C)c2)C2=CN=NC2NC2=C1C(=O)CC(C)(C)C2 (some centres undefined) [US20250313563, Compound 913135]"
19,100 to 1000 nM,"CC[C@]1(c2cccc(-c3ccnc(C)c3)c2)C2=CN=NC2NC2=C1C(=O)N(C)C(C)(C)C2 (some centres undefined) [US20250313563, Compound 949004]"
20,100 to 1000 nM,"CC[C@]1(c2cccc(S(=O)(=O)CC3CC3)c2)C2=CN=NC2NC2=C1C(=O)CC(C)(C)C2 (some centres undefined) [US20250313563, Compound 917150]"
